pKd: −log10 of the molar value.
Experiments:
[1] = target: T1, Serine/threonine-protein kinase Nek5 (Homo sapiens, UniProt Q6P3R8)
T1 sequence (Q6P3R8 whole entry): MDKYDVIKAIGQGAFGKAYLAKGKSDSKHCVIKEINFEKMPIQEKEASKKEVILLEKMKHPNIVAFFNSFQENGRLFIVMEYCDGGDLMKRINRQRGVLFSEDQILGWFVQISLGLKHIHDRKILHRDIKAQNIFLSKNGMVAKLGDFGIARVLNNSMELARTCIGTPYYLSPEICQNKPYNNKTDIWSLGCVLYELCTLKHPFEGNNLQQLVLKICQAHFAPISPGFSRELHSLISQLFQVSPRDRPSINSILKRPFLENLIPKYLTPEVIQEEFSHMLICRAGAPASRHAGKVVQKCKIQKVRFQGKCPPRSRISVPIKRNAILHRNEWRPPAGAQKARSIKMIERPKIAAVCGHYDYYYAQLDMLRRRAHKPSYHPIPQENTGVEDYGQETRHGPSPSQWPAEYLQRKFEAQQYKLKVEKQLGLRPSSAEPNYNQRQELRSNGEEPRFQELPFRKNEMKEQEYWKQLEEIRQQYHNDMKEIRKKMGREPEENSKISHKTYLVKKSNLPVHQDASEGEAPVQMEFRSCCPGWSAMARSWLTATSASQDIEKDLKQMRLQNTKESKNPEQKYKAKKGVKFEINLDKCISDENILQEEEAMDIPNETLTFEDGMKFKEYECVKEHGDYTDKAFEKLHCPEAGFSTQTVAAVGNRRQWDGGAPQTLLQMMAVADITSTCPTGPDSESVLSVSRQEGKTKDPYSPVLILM

[2] = target: T2, Serine/threonine-protein kinase BRSK1 (Homo sapiens, UniProt Q8TDC3)
T2 sequence (Q8TDC3 whole entry): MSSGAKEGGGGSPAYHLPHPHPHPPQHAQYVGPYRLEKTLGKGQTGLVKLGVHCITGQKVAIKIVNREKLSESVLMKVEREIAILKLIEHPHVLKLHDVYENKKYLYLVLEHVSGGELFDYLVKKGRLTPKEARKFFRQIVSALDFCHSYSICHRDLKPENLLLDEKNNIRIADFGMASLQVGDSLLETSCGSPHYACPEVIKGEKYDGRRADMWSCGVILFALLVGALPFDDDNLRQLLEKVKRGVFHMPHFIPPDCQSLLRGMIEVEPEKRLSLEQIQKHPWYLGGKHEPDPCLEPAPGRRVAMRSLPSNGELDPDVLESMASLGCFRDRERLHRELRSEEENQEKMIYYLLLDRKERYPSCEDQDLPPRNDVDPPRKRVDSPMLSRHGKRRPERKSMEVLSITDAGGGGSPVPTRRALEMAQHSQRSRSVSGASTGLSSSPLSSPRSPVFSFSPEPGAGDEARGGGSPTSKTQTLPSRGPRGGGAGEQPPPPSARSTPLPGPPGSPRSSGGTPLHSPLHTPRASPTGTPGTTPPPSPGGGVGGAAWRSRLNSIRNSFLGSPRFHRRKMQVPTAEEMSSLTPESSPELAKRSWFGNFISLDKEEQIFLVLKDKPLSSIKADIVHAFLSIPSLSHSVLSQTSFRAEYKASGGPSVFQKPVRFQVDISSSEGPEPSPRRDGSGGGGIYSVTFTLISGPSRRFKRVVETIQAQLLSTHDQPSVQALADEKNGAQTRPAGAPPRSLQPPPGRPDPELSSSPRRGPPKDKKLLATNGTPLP

[3] = target: Mitogen-activated protein kinase 11 (Homo sapiens, UniProt Q15759)
[4] = target: Tyrosine-protein kinase ABL1 (Homo sapiens, UniProt P00519, Q252H)
[5] = target: T3, Tyrosine-protein kinase ZAP-70 (Homo sapiens, UniProt P43403)
T3 sequence (P43403 whole entry): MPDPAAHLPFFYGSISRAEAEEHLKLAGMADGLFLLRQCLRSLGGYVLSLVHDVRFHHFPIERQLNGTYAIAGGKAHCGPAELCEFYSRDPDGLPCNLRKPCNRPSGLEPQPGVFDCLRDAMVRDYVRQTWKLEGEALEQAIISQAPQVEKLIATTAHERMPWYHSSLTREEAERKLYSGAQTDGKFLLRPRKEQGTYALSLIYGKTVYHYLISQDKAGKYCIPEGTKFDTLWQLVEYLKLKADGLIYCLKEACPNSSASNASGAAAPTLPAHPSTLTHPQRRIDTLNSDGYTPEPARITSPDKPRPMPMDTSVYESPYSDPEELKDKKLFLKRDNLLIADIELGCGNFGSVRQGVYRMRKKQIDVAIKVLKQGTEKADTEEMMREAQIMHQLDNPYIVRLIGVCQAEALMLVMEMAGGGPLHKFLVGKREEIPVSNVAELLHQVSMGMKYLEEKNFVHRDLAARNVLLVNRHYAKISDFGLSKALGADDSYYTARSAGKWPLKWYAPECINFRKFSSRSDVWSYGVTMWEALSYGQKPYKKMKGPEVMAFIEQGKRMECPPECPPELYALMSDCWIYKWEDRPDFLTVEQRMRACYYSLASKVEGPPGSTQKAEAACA

[6] = target: Death-associated protein kinase 1 (Homo sapiens, UniProt P53355)
[7] = target: STE20-like serine/threonine-protein kinase (Homo sapiens, UniProt Q9H2G2)
[8] = target: Ribosomal protein S6 kinase alpha-5 (Homo sapiens, UniProt O75582)
Activin receptor type-2B = Activin receptor type-2B (Homo sapiens, UniProt Q13705)
[9] = target: Mitogen-activated protein kinase 3 (Homo sapiens, UniProt P27361)
[10] = target: Proto-oncogene tyrosine-protein kinase receptor Ret (Homo sapiens, UniProt P07949, M918T)
[11] = target: Platelet-derived growth factor receptor beta (Homo sapiens, UniProt P09619)
[12] = target: Ribosomal protein S6 kinase alpha-4 (Homo sapiens, UniProt O75676)
[13] = target: MAP kinase-interacting serine/threonine-protein kinase 2 (Homo sapiens, UniProt Q9HBH9)
Sequence of MAP kinase-interacting serine/threonine-protein kinase 2 (Q9HBH9 whole entry): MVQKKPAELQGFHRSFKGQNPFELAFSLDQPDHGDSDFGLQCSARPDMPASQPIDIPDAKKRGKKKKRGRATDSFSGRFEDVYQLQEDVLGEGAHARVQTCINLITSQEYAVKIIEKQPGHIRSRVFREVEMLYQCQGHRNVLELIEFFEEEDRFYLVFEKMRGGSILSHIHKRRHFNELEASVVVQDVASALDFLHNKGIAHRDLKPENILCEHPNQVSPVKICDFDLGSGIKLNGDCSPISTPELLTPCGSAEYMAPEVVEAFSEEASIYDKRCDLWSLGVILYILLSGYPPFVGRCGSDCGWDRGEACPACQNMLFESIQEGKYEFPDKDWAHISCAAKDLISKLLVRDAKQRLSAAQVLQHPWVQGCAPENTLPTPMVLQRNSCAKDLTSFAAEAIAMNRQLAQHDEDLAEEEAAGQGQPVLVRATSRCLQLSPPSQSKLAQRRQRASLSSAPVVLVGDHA

Sequence of Activin receptor type-2B (Q13705 whole entry): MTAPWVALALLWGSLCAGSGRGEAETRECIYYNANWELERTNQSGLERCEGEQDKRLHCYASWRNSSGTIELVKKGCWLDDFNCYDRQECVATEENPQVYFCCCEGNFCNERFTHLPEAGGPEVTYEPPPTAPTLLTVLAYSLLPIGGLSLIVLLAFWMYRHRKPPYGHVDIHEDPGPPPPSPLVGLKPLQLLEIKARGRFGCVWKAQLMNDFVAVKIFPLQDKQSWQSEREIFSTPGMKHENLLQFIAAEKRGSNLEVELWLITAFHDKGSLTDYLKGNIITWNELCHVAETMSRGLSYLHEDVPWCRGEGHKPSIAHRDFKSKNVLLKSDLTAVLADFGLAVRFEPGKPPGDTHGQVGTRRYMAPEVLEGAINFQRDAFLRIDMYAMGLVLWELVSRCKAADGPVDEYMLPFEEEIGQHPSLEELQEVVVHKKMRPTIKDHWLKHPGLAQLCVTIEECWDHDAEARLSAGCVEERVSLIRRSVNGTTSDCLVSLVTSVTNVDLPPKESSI
Sequence of Death-associated protein kinase 1 (P53355 whole entry): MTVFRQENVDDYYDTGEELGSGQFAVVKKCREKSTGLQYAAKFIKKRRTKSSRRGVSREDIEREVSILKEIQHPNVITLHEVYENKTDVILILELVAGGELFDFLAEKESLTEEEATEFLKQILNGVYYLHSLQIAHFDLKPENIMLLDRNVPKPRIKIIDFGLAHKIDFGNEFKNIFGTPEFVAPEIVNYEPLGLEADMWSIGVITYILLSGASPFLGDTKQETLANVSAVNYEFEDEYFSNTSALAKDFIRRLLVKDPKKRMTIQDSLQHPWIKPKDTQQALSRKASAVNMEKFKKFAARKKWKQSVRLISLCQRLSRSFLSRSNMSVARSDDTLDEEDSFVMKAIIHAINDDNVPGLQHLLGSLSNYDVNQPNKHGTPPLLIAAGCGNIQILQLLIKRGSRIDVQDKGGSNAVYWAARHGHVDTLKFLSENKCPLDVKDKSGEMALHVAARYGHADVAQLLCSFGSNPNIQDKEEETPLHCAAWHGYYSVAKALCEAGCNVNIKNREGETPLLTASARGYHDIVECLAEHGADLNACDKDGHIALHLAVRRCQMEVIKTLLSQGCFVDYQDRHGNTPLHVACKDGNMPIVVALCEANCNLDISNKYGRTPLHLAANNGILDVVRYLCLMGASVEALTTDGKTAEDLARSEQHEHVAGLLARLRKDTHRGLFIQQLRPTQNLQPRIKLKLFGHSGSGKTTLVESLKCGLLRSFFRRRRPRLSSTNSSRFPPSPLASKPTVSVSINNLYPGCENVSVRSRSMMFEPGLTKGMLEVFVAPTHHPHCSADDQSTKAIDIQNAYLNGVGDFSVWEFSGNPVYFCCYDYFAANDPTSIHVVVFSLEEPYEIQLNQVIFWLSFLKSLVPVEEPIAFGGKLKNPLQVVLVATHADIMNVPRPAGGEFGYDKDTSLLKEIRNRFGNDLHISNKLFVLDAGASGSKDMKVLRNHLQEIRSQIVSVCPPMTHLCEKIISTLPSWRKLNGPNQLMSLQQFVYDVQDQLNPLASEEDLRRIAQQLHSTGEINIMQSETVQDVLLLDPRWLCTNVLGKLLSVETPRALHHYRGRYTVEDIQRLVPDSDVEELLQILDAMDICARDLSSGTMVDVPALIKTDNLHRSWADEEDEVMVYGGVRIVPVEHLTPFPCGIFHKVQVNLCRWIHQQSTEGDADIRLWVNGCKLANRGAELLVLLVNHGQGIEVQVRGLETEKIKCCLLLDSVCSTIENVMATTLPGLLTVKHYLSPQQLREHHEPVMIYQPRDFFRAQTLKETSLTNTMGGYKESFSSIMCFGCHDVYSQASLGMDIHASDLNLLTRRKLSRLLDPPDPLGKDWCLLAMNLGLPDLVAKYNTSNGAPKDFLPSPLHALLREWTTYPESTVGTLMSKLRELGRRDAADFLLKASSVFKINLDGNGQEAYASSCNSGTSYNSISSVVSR
Sequence of STE20-like serine/threonine-protein kinase (Q9H2G2 whole entry): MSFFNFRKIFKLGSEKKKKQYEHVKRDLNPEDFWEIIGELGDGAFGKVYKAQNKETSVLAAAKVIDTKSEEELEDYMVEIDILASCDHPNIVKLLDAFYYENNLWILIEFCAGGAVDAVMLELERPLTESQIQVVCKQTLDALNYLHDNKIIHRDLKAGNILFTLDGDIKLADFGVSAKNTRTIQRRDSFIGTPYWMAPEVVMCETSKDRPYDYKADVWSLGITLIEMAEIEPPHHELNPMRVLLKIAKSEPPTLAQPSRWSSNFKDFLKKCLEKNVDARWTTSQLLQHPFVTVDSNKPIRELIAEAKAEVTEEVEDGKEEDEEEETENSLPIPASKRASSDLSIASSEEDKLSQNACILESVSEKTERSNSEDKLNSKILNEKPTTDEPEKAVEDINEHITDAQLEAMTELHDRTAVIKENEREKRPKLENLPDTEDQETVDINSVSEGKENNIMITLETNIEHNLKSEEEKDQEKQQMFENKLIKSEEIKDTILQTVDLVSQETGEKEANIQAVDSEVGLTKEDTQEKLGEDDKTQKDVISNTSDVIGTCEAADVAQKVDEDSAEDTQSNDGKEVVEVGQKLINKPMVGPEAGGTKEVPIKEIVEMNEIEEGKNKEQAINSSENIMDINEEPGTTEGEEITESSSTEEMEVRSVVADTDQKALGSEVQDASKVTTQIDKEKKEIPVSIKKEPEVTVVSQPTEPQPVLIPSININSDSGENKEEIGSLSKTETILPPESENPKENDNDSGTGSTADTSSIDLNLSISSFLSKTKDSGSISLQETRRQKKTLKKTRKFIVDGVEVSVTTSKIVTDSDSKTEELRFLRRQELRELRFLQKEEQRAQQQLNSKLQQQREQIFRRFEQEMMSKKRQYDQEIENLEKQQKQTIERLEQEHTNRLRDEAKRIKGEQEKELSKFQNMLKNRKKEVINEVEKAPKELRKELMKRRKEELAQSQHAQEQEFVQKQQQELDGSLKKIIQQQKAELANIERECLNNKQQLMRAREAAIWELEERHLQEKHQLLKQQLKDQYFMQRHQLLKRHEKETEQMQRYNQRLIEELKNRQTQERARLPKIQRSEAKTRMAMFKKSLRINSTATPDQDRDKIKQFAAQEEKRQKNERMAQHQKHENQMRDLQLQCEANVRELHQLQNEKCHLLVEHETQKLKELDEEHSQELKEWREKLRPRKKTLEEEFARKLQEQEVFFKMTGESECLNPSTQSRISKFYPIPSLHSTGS
Sequence of Platelet-derived growth factor receptor beta (P09619 whole entry): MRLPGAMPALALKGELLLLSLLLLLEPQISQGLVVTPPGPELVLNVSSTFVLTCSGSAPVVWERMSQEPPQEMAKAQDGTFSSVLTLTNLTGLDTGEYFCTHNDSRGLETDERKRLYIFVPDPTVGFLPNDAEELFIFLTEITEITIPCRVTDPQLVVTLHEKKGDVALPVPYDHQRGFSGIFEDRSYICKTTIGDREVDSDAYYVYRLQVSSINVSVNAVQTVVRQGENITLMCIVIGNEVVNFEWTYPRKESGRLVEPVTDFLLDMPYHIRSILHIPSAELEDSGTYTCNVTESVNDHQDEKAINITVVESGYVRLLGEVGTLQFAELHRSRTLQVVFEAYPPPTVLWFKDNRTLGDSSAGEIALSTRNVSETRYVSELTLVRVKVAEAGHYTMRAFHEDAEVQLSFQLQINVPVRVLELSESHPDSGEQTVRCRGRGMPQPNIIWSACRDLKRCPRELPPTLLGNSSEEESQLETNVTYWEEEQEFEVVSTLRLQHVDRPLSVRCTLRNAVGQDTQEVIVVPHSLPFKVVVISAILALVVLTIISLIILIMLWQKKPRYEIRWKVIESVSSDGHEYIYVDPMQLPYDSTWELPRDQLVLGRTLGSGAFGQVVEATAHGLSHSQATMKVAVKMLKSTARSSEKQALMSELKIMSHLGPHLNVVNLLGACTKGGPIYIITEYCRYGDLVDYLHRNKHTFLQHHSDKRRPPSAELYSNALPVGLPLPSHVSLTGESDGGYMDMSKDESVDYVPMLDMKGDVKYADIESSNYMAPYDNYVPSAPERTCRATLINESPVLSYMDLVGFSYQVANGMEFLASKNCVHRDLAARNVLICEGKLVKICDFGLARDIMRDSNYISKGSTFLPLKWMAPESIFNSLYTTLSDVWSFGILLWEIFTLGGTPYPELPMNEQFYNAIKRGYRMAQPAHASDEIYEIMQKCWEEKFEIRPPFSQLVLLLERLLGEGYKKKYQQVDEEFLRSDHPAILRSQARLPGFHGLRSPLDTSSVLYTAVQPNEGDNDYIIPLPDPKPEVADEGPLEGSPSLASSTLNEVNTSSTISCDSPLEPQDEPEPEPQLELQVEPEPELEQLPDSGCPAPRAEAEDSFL

Structure (SMILES) | pKd [1] | pKd [2] | pKd [3] | pKd [4] | pKd [5] | pKd [6] | pKd [7] | pKd [8] | pKd (Activin receptor type-2B) | pKd [9] | pKd [10] | pKd [11] | pKd [12] | pKd [13]
COCC(=O)NC/C=C/c1ccc2ncnc(Nc3ccc(Oc4ccc(C)nc4)c(C)c3)c2c1 [CP-724714] | < 5.00 | < 5.00 | < 5.00 | < 5.00 | < 5.00 | < 5.00 | < 5.00 | < 5.00 | < 5.00 | < 5.00 | < 5.00 | < 5.00 | < 5.00 | 6.08
CCOc1cc2ncc(C#N)c(Nc3ccc(F)c(Cl)c3)c2cc1NC(=O)/C=C/CN(C)C [PELITINIB] | < 5.00 | < 5.00 | < 5.00 | – | < 5.00 | < 5.00 | – | < 5.00 | < 5.00 | < 5.00 | < 5.00 | < 5.00 | < 5.00 | < 5.00
NC(=O)c1ccc(-c2nc(-c3ccc4c(c3)OCO4)c(-c3ccccn3)[nH]2)cc1 [SB-431542] | < 5.00 | < 5.00 | < 5.00 | < 5.00 | < 5.00 | < 5.00 | < 5.00 | < 5.00 | < 5.00 | < 5.00 | < 5.00 | < 5.00 | < 5.00 | < 5.00
Nc1nc(Nc2ccc(S(N)(=O)=O)cc2)nn1C(=O)c1c(F)cccc1F [JNJ-7706621] | < 5.00 | – | < 5.00 | – | < 5.00 | < 5.00 | 7.32 | < 5.00 | 5.23 | – | – | – | < 5.00 | < 5.00
Oc1ccc(-c2nc(-c3ccncc3)c(-c3ccc(F)cc3)[nH]2)cc1 [SB-202190] | < 5.00 | < 5.00 | – | < 5.00 | < 5.00 | < 5.00 | 5.49 | < 5.00 | 5.32 | < 5.00 | < 5.00 | < 5.00 | < 5.00 | < 5.00
